From PubChem BioAssay AID248 (DTP/NCI, 2004)
Inconclusive results and toxic doses are left out.

Test system: L1210 leukemia ip in BDF1 mice, survival T/C
Assay: NCI In Vivo Anticancer Drug Screen. Data for tumor model L1210 Leukemia (intraperitoneal) in B6D2F1 (BDF1) mice
Conditions: endpoint: mean survival time, higher = longer survival
Method in brief: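 Value reflects the ratio of survival in compound-treated mice to survival in vehicle-treated controls, with both groups carrying the same transplanted tumor.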

[1] = dose: 100.0 mg/kg/injection, schedule: Q01DX009 (ip), vehicle: Klucel (hydroxypropylcellulose) (HPC)
[2] = dose: 200.0 mg/kg/injection, schedule: Q01DX009 (ip), vehicle: Klucel (hydroxypropylcellulose) (HPC)
[3] = dose: 100.0 mg/kg/injection, schedule: Q04DX003 (ip), vehicle: saline with Tween-80
[4] = dose: 400.0 mg/kg/injection, schedule: Q04DX003 (ip), vehicle: saline with Tween-80

## C(=Nc1ccc2c(c1)Cc1ccccc1-2)c1ccccc1
[1]
  T/C: 104 % of control
dose: 100.0 mg/kg/injection, schedule: Q04DX003 (ip), vehicle: Klucel (hydroxypropylcellulose) (HPC)
  T/C: 100 % of control
[2]
  T/C: 96 % of control
dose: 200.0 mg/kg/injection, schedule: Q04DX003 (ip), vehicle: Klucel (hydroxypropylcellulose) (HPC)
  T/C: 95 % of control
dose: 400.0 mg/kg/injection, schedule: Q04DX003 (ip), vehicle: Klucel (hydroxypropylcellulose) (HPC)
  T/C: 103 % of control

## O=C(Nc1ccc(NC(=O)Nc2cccc(C3=NCCCN3)c2)cc1)Nc1cccc(C2=NCCCN2)c1
dose: 6.25 mg/kg/injection, schedule: Q01DX Z (ip), vehicle: carboxymethylcellulose (CMC)
  T/C: 101 % of control
dose: 8.0 mg/kg/injection, schedule: Q01DX Z (oral), vehicle: carboxymethylcellulose (CMC)
  T/C: 104 % of control
dose: 12.5 mg/kg/injection, schedule: Q01DX Z (ip), vehicle: carboxymethylcellulose (CMC)
  T/C: 102 % of control
dose: 16.0 mg/kg/injection, schedule: Q01DX Z (oral), vehicle: carboxymethylcellulose (CMC)
  T/C: 95 % of control
dose: 31.0 mg/kg/injection, schedule: Q01DX Z (oral), vehicle: carboxymethylcellulose (CMC)
  T/C: 97 % of control
dose: 50.0 mg/kg/injection, schedule: Q01DX Z (ip), vehicle: carboxymethylcellulose (CMC)
  T/C: 157 % of control
dose: 62.0 mg/kg/injection, schedule: Q01DX Z (oral), vehicle: carboxymethylcellulose (CMC)
  T/C: 103 % of control
dose: 125.0 mg/kg/injection, schedule: Q01DX Z (oral), vehicle: carboxymethylcellulose (CMC)
  T/C: 106 % of control
dose: 250.0 mg/kg/injection, schedule: Q01DX Z (oral), vehicle: carboxymethylcellulose (CMC)
  T/C: 105 % of control
dose: 500.0 mg/kg/injection, schedule: Q01DX Z (oral), vehicle: carboxymethylcellulose (CMC)
  T/C: 106 % of control

## COc1cc(OC)c2c(=O)c3ccccc3[nH]c2c1
[3]
  T/C: 87 % of control
[4]
  T/C: 88 % of control

## Brc1ccccc1-c1ccccc1-c1ccccc1
[3]
  T/C: 92 % of control
dose: 200.0 mg/kg/injection, schedule: Q04DX003 (ip), vehicle: saline with Tween-80
  T/C: 100 % of control
[4]
  T/C: 92 % of control

## COC(=O)CNC(=O)C(Cc1ccc(O)cc1)NC(=O)OC(C)(C)C (centres undefined)
dose: 50.0 mg/kg/injection, schedule: Q01DX005 (ip), vehicle: saline
  T/C: 95 % of control
dose: 100.0 mg/kg/injection, schedule: Q01DX005 (ip), vehicle: saline
  T/C: 105 % of control
dose: 200.0 mg/kg/injection, schedule: Q01DX005 (ip), vehicle: saline
  T/C: 96 % of control
dose: 400.0 mg/kg/injection, schedule: Q01DX005 (ip), vehicle: saline
  T/C: 98 % of control

## NCC(=O)NO
dose: 75.0 mg/kg/injection, schedule: Q01DX009 (ip), vehicle: saline
  T/C: 99 % of control
dose: 90.0 mg/kg/injection, schedule: Q01DX015 (ip), vehicle: water
  T/C: 92 % of control
dose: 100.0 mg/kg/injection, schedule: Q04DX003 (ip), vehicle: saline
  T/C: 108 % of control
dose: 133.0 mg/kg/injection, schedule: Q01DX015 (ip), vehicle: water
  T/C: 94 % of control
dose: 150.0 mg/kg/injection, schedule: Q01DX009 (ip), vehicle: saline
  T/C: 99 % of control
dose: 200.0 mg/kg/injection, schedule: Q01DX015 (ip), vehicle: water
  T/C: 94 % of control
dose: 200.0 mg/kg/injection, schedule: Q04DX003 (ip), vehicle: saline
  T/C: 106 % of control
dose: 300.0 mg/kg/injection, schedule: Q01DX009 (ip), vehicle: saline
  T/C: 92 % of control
dose: 400.0 mg/kg/injection, schedule: Q04DX003 (ip), vehicle: saline
  T/C: 98 % of control

## COC(=O)c1cc(Cl)cc(N)c1Cl
dose: 100.0 mg/kg/injection, schedule: Q04DX002 (ip), vehicle: Klucel (hydroxypropylcellulose) (HPC)
  T/C: 98 % of control
dose: 200.0 mg/kg/injection, schedule: Q04DX002 (ip), vehicle: Klucel (hydroxypropylcellulose) (HPC)
  T/C: 98 % of control
dose: 400.0 mg/kg/injection, schedule: Q04DX002 (ip), vehicle: Klucel (hydroxypropylcellulose) (HPC)
  T/C: 91 % of control

## Cc1ccc(NC(=O)Oc2ccc(-c3ccccc3)cc2Br)c(Br)c1
[1]
  T/C: 93 % of control
[2]
  T/C: 94 % of control
dose: 400.0 mg/kg/injection, schedule: Q01DX009 (ip), vehicle: Klucel (hydroxypropylcellulose) (HPC)
  T/C: 91 % of control
